Data taken from patent US8841332B2, “Fungicidal N-(2-phenoxyethyl)carboxamide derivatives and their aza, thia and sila analogues” (Bayer Intellectual Property GmbH, priority 2008, dated 2014).

Experiment: logP determination by HPLC on a reversed-phase column (C 18), EEC Directive 79/831 Annex V.A8
Assay type: physicochemical
Details: HPLC reversed-phase C 18, 40° C., 0.1% aqueous formic acid and acetonitrile, gradient 10% to 90% acetonitrile
Method: In the table 1, the logP values were determined in accordance with EEC Directive 79/831 Annex V.A8 by HPLC (High Performance Liquid Chromatography) on a reversed-phase column (C 18), using the method described below: Temperature: 40° C.; Mobile phases: 0.1% aqueous formic acid and acetonitrile; linear gradient from 10% acetonitrile to 90% acetonitrile. Calibration was carried out using unbranched alkan-2-ones (comprising 3 to 16 carbon atoms) with known logP values (determination of the logP values by the retention times using linear interpolation between two successive alkanones).

| Structure (SMILES) | logP |
| --- | --- |
| CC(COc1ccc(Cl)cc1Cl)N(C(=O)c1cn(C)nc1I)C1CC1 (centres unmarked) [Example 19] | 3.78 |
| Cn1cc(C(=O)N(CCOc2c(Cl)cc(Cl)cc2Cl)C2CCCC2)c(C(F)F)n1 [Example 24] | 4.72 |
